We go through one molecule from ChEMBL document CHEMBL1136454, “Synthesis and biological activity of N-Acylated ornithine analogues of daptomycin” (Bioorg Med Chem Lett, 2003).

Common to all, as to assay type: ADME, organism-based
A short description of data set [1]: In vivo volume distribution (Vd) was determined in murine septicemia at dose of 100 mg/kg. The arrangement: dose 100 mg/kg. The following applies: mouse.
The nature of data set [2]: In vivo Tmax was determined in murine septicemia at dose of 100 mg/kg. Also noted: dose 100 mg/kg. Conditions: mouse.
Data set [3] in a line: In vivo half life period was determined in murine septicemia at dose of 50 mg/kg. Also noted: dose 50 mg/kg. The following applies: mouse.
Data set [4] is described as follows: In vivo area under curve (AUC) was determined in murine septicemia at dose of 100 mg/kg. The arrangement: dose 100 mg/kg. Conditions: mouse.
Data set [5] can be described thus: In vivo Cmax in mice at dose of 100 mg/kg. The arrangement: dose 100 mg/kg. Conditions: mouse.
Data set [6] is described as follows: In vivo total clearance was determined in murine septicemia at dose of 100 mg/kg. The following applies: mouse, read-out: CLtotal (converted). The arrangement: dose 100 mg/kg.

For the molecule `CCCCCCCCCC(=O)N[C@@H](Cc1c[nH]c2ccccc12)C(=O)N[C@H](CC(N)=O)C(=O)N[C@@H](CC(=O)O)C(=O)N[C@@H]1C(=O)NCC(=O)N[C@@H](CCCNC(=O)c2ccccc2N)C(=O)N[C@@H](CC(=O)O)C(=O)N[C@H](C)C(=O)N[C@@H](CC(=O)O)C(=O)NCC(=O)N[C@H](CO)C(=O)N[C@@H]([C@H](C)CC(=O)O)C(=O)N[C@@H](CC(=O)c2ccccc2N)C(=O)O[C@@H]1C`, the Vd in data set [1] was determined as 0.23 L/kg. Further, the Tmax in data set [2] stood at 0.5 h. In data set [3], this molecule had a half-life of 2.4 h. The AUC in data set [4] was 1500 µg·h/mL. Moreover, the highest level in data set [5] (Cmax) was 464 µg/mL. For the same molecule, in data set [6], the clearance was 1.1 mL/min/kg.

Broadly, the Vd is the apparent volume that relates the amount in the body to the concentration in plasma or blood. As usually defined, the Tmax is the time at which the peak concentration occurs. By half-life is commonly meant the time in which the quantity being followed falls by half. Low readings indicate rapid decline, high ones slow decline. What is called AUC is concentration integrated over time. A high value points to high exposure. As usually defined, the Cmax is the highest concentration seen after dosing.
